Measured values taken from US20110071197A1, “BIS-ARYL COMPOUNDS FOR USE AS MEDICAMENTS” (priority 2008, published 2011).

target: T1, Recombinant human LTC4 synthase (Homo sapiens, UniProt Q16873); test: LTC4 synthase in vitro assay (HTRF detection of LTC4); assay type: biochemical; details: compound concentration 3 μM; HTRF method
T1 construct: made in house; host or cells: Pichia pastoris
T1 sequence (Q16873 1-150): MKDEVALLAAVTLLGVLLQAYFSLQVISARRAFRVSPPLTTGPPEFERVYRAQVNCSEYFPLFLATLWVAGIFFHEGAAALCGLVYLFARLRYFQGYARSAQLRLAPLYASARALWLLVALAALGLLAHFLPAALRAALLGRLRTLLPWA
Procedure: Alternatively HTRF detection of LTC4 can be used:
In the assay, LTC4 synthase catalyses the reaction where the substrate LTA4 is converted to LTC4. Recombinant human LTC4 synthase is expressed in Piccia pastoralis and the purified enzyme is dissolved in 25 mM Tris-buffer pH 7.8 supplemented with 0.1 mM glutathione (GSH) and stored at −80° C. The assay is performed in phosphate buffered saline (PBS) pH 7.4 and 5 mM GSH in 384-well plates.
The following is added chronologically to each well: • 1. 48 μl LTC4 synthase in PBS with 5 mM GSH. The total protein concentration in this solution is 0.5 μg/ml. • 2. […] Incubation of the plate at room temperature for 10 minutes. • 4. 1 μl LTA4 (final conc. 2.5 μM). • 5. Incubation of the plate at room temperature for 5 minutes. • 6. 10 μl of the incubation mixture is analysed using homogeneous time resolved fluorescent (HTRF) detection.

| Compound | inhibition at 3 µM [%] | % inh. |
| --- | --- | --- |
| CCOc1ccc(C(=O)Nc2ccc(Oc3ccc(NC(=O)c4ccccc4)cc3)cc2C(=O)O)cc1 [8:11, 5-(4-benzoylaminophenoxy)-2-(4-ethoxybenzoylamino)-benzoic acid] | 70 |  |
| O=C(Nc1ccc(Oc2ccc(NC(=O)c3ccc(Cl)c(Cl)c3)c(C(=O)O)c2)cc1C(=O)O)c1ccc(F)c(F)c1 [1:8, 5-[3-carboxy-4-(3,4-difluorobenz-amido)phenyloxy]-2-(3,4-dichloro-benzamido)benzoic acid] |  | 99 (3 μM) % |
| CCCCOc1ccc(S(=O)(=O)NC(=O)Cc2cccc(Oc3ccc(Nc4ccc(Cl)cc4)c(C(=O)O)c3)c2)cc1 [26:1, 5-{3-[2-(4-Butoxybenzenesulfonyl-amino)-2-oxoethyl]phenoxy}-2-(4-chlorophenylamino)benzoic acid] | 94 |  |

same assay, conditions: total concentration of title compound in the assay 10 μM; HTRF method

| inhibition at 10 µM [%] | Compound | % inh. [%] |
| --- | --- | --- |
|  | CCCCc1ccc(C(=O)Nc2ccc(Oc3ccc(NC(=O)c4cc(Cl)cc(Cl)c4)c(C(=O)O)c3)cc2C(=O)O)cc1 [2:6, 5-[3-carboxy-4-(3-chloro-5-chloro-benzamido)-phenyloxy]-2-(4-butylbenz-amido)benzoic acid] | 100 |
| 23 | CCCCc1ccc(C(=O)Nc2ccc(Oc3ccc(NS(=O)(=O)c4ccc5c(c4)CNCC5)c(CC(=O)O)c3)cc2)cc1 [17:6, [5-[4-(4-butyl-benzoylamino)-phenoxy]-2-(1,2,3,4-tetrahydro-isoquinoline-7-sulfonylamino)-phenyl]-acetic acid] |  |
|  | O=C(Nc1ccc(Oc2ccc(NC(=O)c3cc([N+](=O)[O-])ccc3Cl)c(C(=O)O)c2)cc1C(=O)O)c1cccc(Cl)c1 [2:4, 5-[3-carboxy-4-(3-nitro-6-chlorobenz-amido)-phenyloxy]-2-(3-chlorobenz-amido)benzoic acid] | 99 |
| 95 | COc1ccc(S(=O)(=O)N(C)c2ccc(Oc3ccc(NC(=O)c4ccccc4Cl)c(C(=O)O)c3)cc2)cc1 [11:22, 2-(2-Chloro-benzoylamino)-5-{4-[(4-methoxybenzenesulfonyl)-methylamino]phenoxy}benzoic acid] |  |
|  | O=C(Nc1ccc(Oc2ccc(NC(=O)c3cc(Cl)ccc3F)c(C(=O)O)c2)cc1C(=O)O)c1cccc(Cl)c1 [2:2, 5-[3-carboxy-4-(3-chloro-6-fluorobenz-amido)phenyloxy]-2-(3-chlorobenz-amido)benzoic acid] | 100 |
| 95 | CN(c1cc(Oc2ccc(Nc3ccc(C(=O)C4CC4)cc3)cc2)cc(C(=O)O)c1)c1ccc(F)c(F)c1 [18:3, 3-[4-(4-Cyclopropanecarbonyl-phenylamino)-phenoxy]-5-[(3,4-difluoro-phenyl)-methyl-amino]-benzoic acid] |  |
| 99 | O=C(O)c1cc(Oc2ccc(Nc3ccc(F)c(F)c3)c(C(=O)O)c2)ccc1Nc1ccc(C(F)(F)F)nc1 [1:5, 5-[3-carboxy-4-(3,4-difluoro-phenylamino)phenyloxy]-2-(6-trifluoromethylpyridin-3-yl-amino)-benzoic acid] |  |
| 100 | CC(C)Oc1ccc(C(=O)Nc2ccc(Oc3ccc(NC(=O)c4cc(Cl)ccc4O)c(CC(=O)O)c3)cc2C(=O)O)cc1 [6:3, 5-[3-carboxymethyl-4-(5-chloro-2-hydroxybenzoylamino)phenoxy]-2-(4-isopropoxybenzoyl-amino)benzoic acid] |  |
| 100 | Cc1nc(C(F)(F)F)ccc1C(=O)Nc1ccc(Oc2ccc(NS(=O)(=O)c3ccc(F)c(Cl)c3)c(C(=O)O)c2)cc1 [21:1, 2-(3-Chloro-4-fluoro-benzenesulfonylamino)-5-{4-[(2-methyl-6-trifluoromethyl-pyridine-3-carbonyl)-amino]-phenoxy}-benzoic acid] |  |
| 99 | CC(C)Oc1ccc(C(=O)Nc2ccc(Oc3ccc(N(C)C(=O)c4ccc(C(F)(F)F)cc4)cc3)cc2C(=O)O)cc1 [9:4, 5-(4-((N-methyl)-4-trifluoromethyl-benzamido)phenoxy)-2-(4-isopropoxy-benzamido)benzoic acid] |  |
| 96 | O=C(NS(=O)(=O)c1ccc(F)cc1)c1cccc(Oc2ccc(Nc3ccc(Cl)cc3)c(C(=O)O)c2)c1 [20:8, 5-[3-(4-Fluorobenzenesulfonyl-aminocarbonyl)-phenoxy]-2-(4-chloro-phenylamino)-benzoic acid] |  |
|  | CCCCc1ccc(C(=O)Nc2cccc(Oc3ccc(NC(=O)c4ccc(C(F)(F)F)cc4F)c(C(=O)O)c3)c2)cc1 [10:4, 5-[3-((4-(1-butyl)benzoyl)amino)-phenoxy]-2-(2-fluoro-4-trifluoro-methylbenzoylamino)benzoic acid] | 95 |
| 96 | O=C(NS(=O)(=O)c1ccc(F)c(F)c1)c1cccc(Oc2ccc(Nc3ccc(Cl)cc3)c(C(=O)O)c2)c1 [20:2, 2-(4-Chloro-phenylamino)-5-[3-(3,4-difluoro-benzenesulfonylamino-carbonyl)-phenoxy]-benzoic acid] |  |
| 98 | O=C(O)c1cc(Oc2ccc(Nc3cc(C(F)(F)F)ccc3Cl)c(C(=O)O)c2)ccc1Nc1ccc(F)c(F)c1 [1:1, 5-(3-carboxy-4-(2-chloro-5-trifluoromethylphenylamino)-phenyloxy)-2-(3,4-difluoro-phenylamino)benzoic acid] |  |
|  | CN(C(=O)c1ccc(C(C)(C)C)cc1)c1ccc(Oc2ccc(NC(=O)c3ccc(Cl)cc3Cl)c(C(=O)O)c2)cc1 [9:3, 5-(4-((N-methyl)-4-tert-butylbenz-amido)phenoxy)-2-(2,4-dichlorobenz-amido)benzoic acid] | 99 |
| 97 | CCCCN(c1ccc(F)c(F)c1)c1ccc(Oc2ccc(Nc3ccc(F)c(F)c3)c(C(=O)O)c2)cc1C(=O)O [Example 24:3, 2-[butyl-(3,4-difluorophenyl)amino]-5-[3-carboxy-4-(3,4-difluorophenyl-amino)phenoxy]benzoic acid] |  |
| 99 | COc1ccc(S(=O)(=O)N(C)c2ccc(Oc3ccc(NC(=O)c4ccc(Cl)cc4)c(C(=O)O)c3)cc2)cc1 [11:13, 2-(4-chlorobenzoylamino)-5-{4-[(4-methoxybenzenesulfonyl)-methylamino]phenoxy}benzoic acid] |  |
| 99 | O=C(Nc1ccc(Sc2ccc(NC(=O)c3ccc(C(F)(F)F)cc3)c(C(=O)O)c2)cc1C(=O)O)c1ccc(C(F)(F)F)cc1 [13:3, 2-(4-(trifluoromethyl)-benzamido)-5-((4-(4-(trifluoromethyl)benzamido)-3-carboxyphenyl)sulfanyl)benzoic acid] |  |
| 100 | CC(C)Oc1ccc(C(=O)Nc2ccc(Oc3ccc(S(=O)(=O)Nc4ccc(F)c(F)c4)cc3)cc2C(=O)O)cc1 [25:6, 5-[4-(3,4-Difluoro-phenylsulfamoyl)-phenoxy]-2-(4-isopropoxybenzoyl-amino)benzoic acid] |  |
| 83 | CCCCc1ccc(C(=O)Nc2ccc(Oc3ccc(N(C(=O)c4ccc(CCCC)cc4)c4ccc(F)cc4)cc3)cc2C(=O)O)cc1 [12:3, 5-(4-((N-4-fluorophenyl)4-butylbenzamido)phenoxy)-2-(4-butylbenzamido)benzoic acid] |  |
| 99 | O=C(Nc1ccc(Sc2ccc(NC(=O)c3ccc(Cl)cc3Cl)c(C(=O)O)c2)cc1)c1ccc(C(F)(F)F)cc1 [Example 35:1, 2-(2,4-Dichlorobenzoylamino)-5-[4-(4-trifluoromethylbenzoylamino)phenyl-sulfanyl]benzoic acid] |  |
|  | O=C(Nc1ccc(Oc2ccc(NC(=O)c3cc(Cl)ccc3O)cc2)cc1C(=O)O)c1ccc(C(F)(F)F)cc1 [8:3, 5-[4-(5-chloro-2-hydroxybenzoylamino)phenoxy]-2-(4-trifluoro-methylbenzoylamino)-benzoic acid] | 96 |
| 98 | O=C(Nc1ccc(S(=O)(=O)c2ccc(NC(=O)c3cccc(Cl)c3)c(C(=O)O)c2)cc1C(=O)O)c1cccc(Cl)c1 [16:1, 2-(3-chlorobenzamido)-5-(4-(3-chlorobenzamido)-3-carboxyphenylsulfonyl)-benzoic acid] |  |
| 96 | O=C(O)Cc1cc(Oc2ccc(NC(=O)c3ccc(C(F)(F)F)cc3F)cc2)ccc1NC(=O)c1cccc(Cl)c1 [17:1, {2-(3-chloro-benzoylamino)-5-[4-(2-fluoro-4-trifluoromethyl-benzoylamino)-phenoxy]-phenyl}-acetic acid] |  |
|  | CCCCc1ccc(C(=O)Nc2ccc(Oc3ccc(NS(=O)(=O)c4ccccc4)c(C(=O)O)c3)cc2C(=O)O)cc1 [Example 7:2] | 100 |
|  | 2-(2,3-dichlorobenzylamino)-5-{4-[(4-methoxybenzene-sulfonyl)methyl-amino]-phenoxy}benzoic acid [Example 11:12] | 92 |

| Compound | inhibition at 10 µM [%] | % inh. [%] |
| --- | --- | --- |
| CCCCOc1ccc(S(=O)(=O)Nc2ccc(Oc3ccc(NC(=O)c4ccccc4)cc3)cc2C(=O)O)cc1 [21:4, 5-(4-benzoylamino-phenoxy)-2-(4-butoxy-benzenesulfonylamino)-benzoic acid] | 100 |  |
| CCCCOc1ccc(S(=O)(=O)Nc2ccc(Oc3ccc(NC(=O)c4ccccc4)cc3)cc2CC(=O)O)cc1 [17:7, [5-(4-benzoylamino-phenoxy)-2-(4-butoxy-benzenesulfonyl-amino)-phenyl]-acetic acid] | 95 |  |
| CCCCOc1ccc(S(=O)(=O)Nc2ccc(Oc3ccc(NC(=O)c4ccccc4)cc3)cc2CCC(=O)O)cc1 [Example 22:2, 3-[5-(4-Benzoylaminophenoxy)-2-(4-butoxybenzenesulfonylamino)-phenyl]propionic acid] | 99 |  |
